Patent US20110082130A1 (LIGAND PHARMACEUTICALS, INC., priority 2006, published 2011)

Target: T1, chimeric human H3 receptor (Homo sapiens, UniProt Q9Y5N1)
T1 construct: made in house; host or cells: Sf9 insect cells (baculovirus); P2 membrane preparation
Test: Chimeric human H3 receptor GTP binding assay (agonist-stimulated GTP-gamma35S binding, Example 7)
Format: biochemical
Settings: Table II "Ki", symbol *; assay of Example 7
Procedure, shortened: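 Sf9 membranes co-expressing chimeric human H3 receptor and heterotrimeric G-protein, 35 μg/tube, in pH 7.4 Tris buffer with 10 μM GDP. Test compounds (10^−10–10^−6 M) competed against 1 μM histamine, […] GTP-gamma35S, 60 min at room temperature. Filter-bound radioactivity counted; IC50 converted to Ki by Cheng-Prusoff. Agonism/inverse agonism tested without histamine (EC50).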

T1 sequence (Q9Y5N1 with tags, fused parts or gaps): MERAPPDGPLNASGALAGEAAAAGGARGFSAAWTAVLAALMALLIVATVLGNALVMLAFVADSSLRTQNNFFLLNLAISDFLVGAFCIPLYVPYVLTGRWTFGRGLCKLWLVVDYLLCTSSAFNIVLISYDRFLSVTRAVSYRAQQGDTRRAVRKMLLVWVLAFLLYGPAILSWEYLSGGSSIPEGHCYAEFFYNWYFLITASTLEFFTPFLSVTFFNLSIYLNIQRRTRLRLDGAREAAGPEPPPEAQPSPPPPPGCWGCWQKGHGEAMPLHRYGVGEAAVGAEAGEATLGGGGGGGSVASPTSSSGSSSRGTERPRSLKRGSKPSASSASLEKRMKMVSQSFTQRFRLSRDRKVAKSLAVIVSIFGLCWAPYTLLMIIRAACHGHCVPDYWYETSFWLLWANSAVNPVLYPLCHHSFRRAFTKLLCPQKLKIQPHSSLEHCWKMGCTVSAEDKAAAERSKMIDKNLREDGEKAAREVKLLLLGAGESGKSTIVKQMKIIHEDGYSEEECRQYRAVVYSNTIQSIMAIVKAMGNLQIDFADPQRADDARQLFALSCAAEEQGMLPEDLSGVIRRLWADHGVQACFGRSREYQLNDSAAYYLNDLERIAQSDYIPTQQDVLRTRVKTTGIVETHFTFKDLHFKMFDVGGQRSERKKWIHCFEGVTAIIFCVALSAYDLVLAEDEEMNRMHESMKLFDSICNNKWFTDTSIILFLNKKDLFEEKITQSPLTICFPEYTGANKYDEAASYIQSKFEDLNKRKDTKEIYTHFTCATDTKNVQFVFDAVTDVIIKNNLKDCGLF

Ki, < 1000 nM:
CCOc1ccc(-c2ccc3c(c2)CCN(CC(=O)N2CCN(C4CCC4)CC2)C3)cc1 [Compound 528, 2-[2-(4-cyclobutylpiperazin-1-yl)-2-oxoethyl]-6-(4-ethoxyphenyl)-1,2,3,4-tetrahydroisoquinoline]
COc1cc(F)c(-c2ccc3c(c2)CCN(CC(=O)N2CCN(C4CCCC4)CC2)C3)cc1F [Compound 507, 2-[2-(4-cyclopentylpiperazin-1-yl)-2-oxoethyl]-6-(2,5-difluoro-4-methoxyphenyl)-1,2,3,4-tetrahydroisoquinoline]
CO[C@H]1CCN(c2ccc3c(n2)CCN(CC(=O)N2CCN(C4CCC4)CC2)C3)C1 [Compound 670, 6-[2-(4-cyclobutylpiperazin-1-yl)-2-oxoethyl]-2-[(3S)-3-methoxypyrrolidin-1-yl]-5,6,7,8-tetrahydro-1,6-naphthyridine]
COCCC1CCN(c2ccc3c(n2)CCN(CC(=O)N2CCN(C4CCC4)CC2)C3)CC1 [Compound 672, 6-[2-(4-cyclobutylpiperazin-1-yl)-2-oxoethyl]-2-[4-(2-methoxyethyl)piperidin-1-yl]-5,6,7,8-tetrahydro-1,6-naphthyridine]

Same assay, conditions: Table II; "*" = Ki in assay of Example 7 less than 1 micromolar

Ki, < 1000 nM:
O=C(CN1CCc2cc(-n3cccn3)ccc2C1)N1CCN2CCCCC2C1 (stereo not shown) [Compound 153, 2-{[6-(1H-pyrazol-1-yl)-3,4-dihydroisoquinolin-2(1H)-yl]acetyl}octahydro-2H-pyrido[1,2-a]pyrazine]
O=C(CN1CCc2nc(N3CCOCC3)ncc2C1)N1CCN(C2CCCC2)CC1 [Compound 140, 6-[2-(4-cyclopentylpiperazin-1-yl)-2-oxoethyl]-2-morpholin-4-yl-5,6,7,8-tetrahydropyrido[4,3-d]pyrimidine]
O=C(CN1CCc2cc(-n3ccnn3)ccc2C1)N1CCN(C2CCC2)CC1 [Compound 208, 2-[2-(4-cyclobutylpiperazin-1-yl)-2-oxoethyl]-6-(1H-1,2,3-triazol-1-yl)-1,2,3,4-tetrahydroisoquinoline]
O=C(CN1CCc2nc(N3CCOCC3)ccc2C1)N1CCN(C2CCC2)CC1 [Compound 175, 6-[2-(4-cyclobutylpiperazin-1-yl)-2-oxoethyl]-2-morpholin-4-yl-5,6,7,8-tetrahydro-1,6-naphthyridine]
CC1CCC[C@H]2CN(C(=O)CN3CCc4cc(-n5cccn5)ccc4C3)CCN12 (stereo in doubt) [Compound 152, 6-methyl-2-{[6-(1H-pyrazol-1-yl)-3,4-dihydroisoquinolin-2(1H)-yl]acetyl}octahydro-2H-pyrido[1,2-a]pyrazine]

Same assay, conditions: Table II; assay of Example 7

Ki, < 1000 nM:
NC(=O)C1CCN(c2ncc3c(n2)CCN(CC(=O)N2CCN(C4CCC4)CC2)C3)CC1 [Compound 691, 1-{6-[2-(4-cyclobutylpiperazin-1-yl)-2-oxoethyl]-5,6,7,8-tetrahydropyrido[4,3-d]pyrimidin-2-yl}piperidine-4-carboxamide]

Same assay, conditions: assay of Example 7; "*" in Ki of Table II

Ki, < 1000 nM:
O=C(CN1CCc2nc(-c3ccc(F)c(F)c3)sc2C1)N1CCN(C2CCC2)CC1 [Compound 349, 5-[2-(4-cyclobutylpiperazin-1-yl)-2-oxoethyl]-2-(3,4-difluorophenyl)-4,5,6,7-tetrahydro[1,3]thiazolo [5,4-c]pyridine]
O=C(CN1CCc2nc(-c3cccc(Cl)c3Cl)sc2C1)N1CCN(C2CCC2)CC1 [Compound 358, 5-[2-(4-cyclobutylpiperazin-1-yl)-2-oxoethyl]-2-(2,3-dichlorophenyl)-4,5,6,7-tetrahydro[1,3]thiazolo [5,4-c]pyridine]
COc1cccc(OC)c1-c1nc2c(s1)CN(CC(=O)N1CCN(C3CCC3)CC1)CC2 [Compound 361, 5-[2-(4-cyclobutylpiperazin-1-yl)-2-oxoethyl]-2-(2,6-dimethoxyphenyl)-4,5,6,7-tetrahydro[1,3]thiazolo [5,4-c]pyridine]
